{
  "source": "PubChem BioAssay (NCI)",
  "test_in_all_cases": "DTP human tumour cell line panel, 48 h",
  "key": {"CAKI-1 renal": {"test_system": "CAKI-1 renal"}, "DU-145 prostate": {"test_system": "DU-145 prostate"}, "U251 CNS": {"test_system": "U251 CNS"}, "SW-620 colon": {"test_system": "SW-620 colon"}, "HOP-62 NSCLC": {"test_system": "HOP-62 NSCLC"}, "RXF 393 renal": {"test_system": "RXF 393 renal"}, "TK-10 renal": {"test_system": "TK-10 renal"}, "ACHN renal": {"test_system": "ACHN renal"}, "SN12C renal": {"test_system": "SN12C renal"}, "HCT-15 colon": {"test_system": "HCT-15 colon"}},
  "note": "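Cells were grown in 96-well plates and exposed to each compound for 48 hours at five concentrations; endpoints were interpolated linearly between bracketing concentrations, or set to the highest concentration if not reached. Here, GI50 denotes the concentration required for 50% inhibition of growth. The concentration for full growth arrest is given as TGI.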",
  "data": [
    {"smiles": "c1cc2ccc1CNCCN1CCNCc3ccc(cc3)Oc3ccc(cc3)CNCCN(CCNCc3ccc(cc3)O2)CCNCc2ccc(cc2)Oc2ccc(cc2)CNCC1", "values": [
      {"measurement": "GI50", "setting": "CAKI-1 renal", "result": 3.07, "unit": "µM"},
      {"measurement": "TGI", "setting": "CAKI-1 renal", "result": 12.9, "unit": "µM"},
      {"measurement": "GI50", "setting": "DU-145 prostate", "result": 1.46, "unit": "µM"},
      {"measurement": "TGI", "setting": "DU-145 prostate", "result": 2.83, "unit": "µM"},
      {"measurement": "GI50", "setting": "U251 CNS", "result": 0.682, "unit": "µM"},
      {"measurement": "TGI", "setting": "U251 CNS", "result": 1.99, "unit": "µM"},
      {"measurement": "GI50", "setting": "SW-620 colon", "result": 1.11, "unit": "µM"},
      {"measurement": "TGI", "setting": "SW-620 colon", "result": 2.63, "unit": "µM"},
      {"measurement": "GI50", "setting": "HOP-62 NSCLC", "result": 1.51, "unit": "µM"},
      {"measurement": "TGI", "setting": "HOP-62 NSCLC", "result": 2.96, "unit": "µM"},
      {"measurement": "GI50", "setting": "RXF 393 renal", "result": 1.78, "unit": "µM"},
      {"measurement": "TGI", "setting": "RXF 393 renal", "result": 3.72, "unit": "µM"},
      {"measurement": "GI50", "setting": "TK-10 renal", "result": 1.62, "unit": "µM"},
      {"measurement": "TGI", "setting": "TK-10 renal", "result": 3.45, "unit": "µM"},
      {"measurement": "GI50", "setting": "ACHN renal", "result": 3.88, "unit": "µM"},
      {"measurement": "TGI", "setting": "ACHN renal", "result": 15.5, "unit": "µM"},
      {"measurement": "GI50", "setting": "SN12C renal", "result": 0.446, "unit": "µM"},
      {"measurement": "TGI", "setting": "SN12C renal", "result": 1.57, "unit": "µM"},
      {"measurement": "GI50", "setting": "HCT-15 colon", "result": 4.62, "unit": "µM"},
      {"measurement": "TGI", "setting": "HCT-15 colon", "result": 20.1, "unit": "µM"}
    ]}
  ]
}
